This is an account of results in BindingDB's records for doi:10.1016/j.bmcl.2010.02.003 (Boehringer Ingelheim (Canada), 2010).

The target of experiment [1] is Cytochrome P450 2D6 (Homo sapiens, UniProt P10635). The experiment can be described thus: Inhibition of CYP2D6.
The target of experiment [2] is T1, Cytochrome P450 1A2 (Homo sapiens, UniProt P05177).
T1 sequence (P05177 whole entry): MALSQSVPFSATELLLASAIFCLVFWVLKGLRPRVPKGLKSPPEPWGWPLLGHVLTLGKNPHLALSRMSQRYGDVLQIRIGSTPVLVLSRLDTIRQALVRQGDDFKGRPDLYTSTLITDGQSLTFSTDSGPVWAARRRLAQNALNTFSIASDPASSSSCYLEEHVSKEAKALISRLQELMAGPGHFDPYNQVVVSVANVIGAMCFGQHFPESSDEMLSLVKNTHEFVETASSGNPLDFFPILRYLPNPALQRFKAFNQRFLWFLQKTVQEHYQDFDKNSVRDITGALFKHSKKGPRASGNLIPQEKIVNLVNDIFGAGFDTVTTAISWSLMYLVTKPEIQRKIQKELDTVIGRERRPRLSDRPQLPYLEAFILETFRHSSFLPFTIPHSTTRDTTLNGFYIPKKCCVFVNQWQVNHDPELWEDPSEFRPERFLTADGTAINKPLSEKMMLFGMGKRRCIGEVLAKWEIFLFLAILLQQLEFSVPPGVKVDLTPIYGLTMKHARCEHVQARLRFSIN
The experiment can be described thus: Inhibition of CYP1A2.

For experiment [3], the target named is Cytochrome P450 3A4 (Homo sapiens, UniProt P08684). The experiment can be described thus: Inhibition of CYP3A4.

The IC50 is the concentration that gives 50% inhibition. Read a low IC50 as inhibition by little substance.

Chain of Cytochrome P450 2D6 (P10635 whole entry): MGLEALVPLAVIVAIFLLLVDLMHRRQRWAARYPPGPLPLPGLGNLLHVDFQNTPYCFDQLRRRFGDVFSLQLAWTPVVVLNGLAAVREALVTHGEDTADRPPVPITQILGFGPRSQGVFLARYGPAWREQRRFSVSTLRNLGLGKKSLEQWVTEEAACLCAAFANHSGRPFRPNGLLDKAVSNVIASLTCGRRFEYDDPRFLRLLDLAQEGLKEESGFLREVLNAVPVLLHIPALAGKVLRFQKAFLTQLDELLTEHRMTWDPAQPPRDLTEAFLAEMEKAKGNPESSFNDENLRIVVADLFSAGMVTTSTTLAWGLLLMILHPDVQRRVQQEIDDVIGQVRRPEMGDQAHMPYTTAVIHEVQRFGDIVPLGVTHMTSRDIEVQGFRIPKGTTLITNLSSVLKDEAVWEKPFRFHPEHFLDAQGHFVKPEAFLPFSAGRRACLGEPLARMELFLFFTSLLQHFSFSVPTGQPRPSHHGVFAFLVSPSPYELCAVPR
Chain of Cytochrome P450 3A4 (P08684 whole entry): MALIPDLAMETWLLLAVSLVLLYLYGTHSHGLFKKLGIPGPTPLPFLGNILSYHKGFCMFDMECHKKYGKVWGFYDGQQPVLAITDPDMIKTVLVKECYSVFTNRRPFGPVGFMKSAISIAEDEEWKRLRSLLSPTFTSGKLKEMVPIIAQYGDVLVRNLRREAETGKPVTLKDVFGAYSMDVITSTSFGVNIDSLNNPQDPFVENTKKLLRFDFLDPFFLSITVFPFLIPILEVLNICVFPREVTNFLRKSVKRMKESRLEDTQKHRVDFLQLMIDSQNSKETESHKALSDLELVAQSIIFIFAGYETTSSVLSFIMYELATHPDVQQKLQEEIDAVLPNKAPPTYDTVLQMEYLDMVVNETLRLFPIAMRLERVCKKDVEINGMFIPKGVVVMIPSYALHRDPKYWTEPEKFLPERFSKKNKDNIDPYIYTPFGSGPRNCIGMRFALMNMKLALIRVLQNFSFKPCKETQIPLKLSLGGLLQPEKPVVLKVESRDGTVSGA

As to `O=C(O)/C=C/c1ccc(NC(=O)C2(NC(=O)c3ccc4c(c3)nc(-c3ccoc3)n4C3CCCCC3)CCCC2)cc1` [3-(4-(1-(1-cyclohexyl-2-(furan-3-yl)-1H-benzo[d]imidazole-5-carboxamido)cyclopentanecarboxamido)phenyl)acrylic acid], the 50% inhibitory concentration (IC50) in experiment [1], in experiment [2] and in experiment [3] was over 30 µM in each case.
As to `O=C(N[C@@H](Cc1c[nH]c2ccc(O)cc12)c1cscn1)c1ccc2c(c1)nc(-c1ccoc1)n2C1CCCCC1` [1-cyclohexyl-2-(furan-3-yl)-N-((S)-2-(5-hydroxy-1H-indol-3-yl)-1-(thiazol-4-yl)ethyl)-1H-benzo[d]imidazole-5-carboxamide], in experiment [2], the IC50 was over 30 µM.
As for `O=C(O)/C=C/c1ccc(NC(=O)C2(NC(=O)c3ccc4c(c3)nc(-c3ccccn3)n4C3CCCCC3)CCCC2)cc1` [3-(4-(1-(1-cyclohexyl-2-(pyridin-2-yl)-1H-benzo[d]imidazole-5-carboxamido)cyclopentanecarboxamido)phenyl)acrylic acid], the IC50 in experiment [1], in experiment [2] and in experiment [3] was over 30 µM each time.
